# Measurements from patent publication US20250230193A1, “CYCLIC COMPOUND HAVING SELECTIVE KRAS INHIBITORY EFFECT ON HRAS AND NRAS” (CHUGAI SEIYAKU KABUSHIKI KAISHA, priority 2022, published 2025).
# Experiments:
# [1] = biological target: GDP-bound NRAS wild-type protein (Homo sapiens, UniProt P01111); assay: Binding to NRAS by surface plasmon resonance (SPR), Single Cycle Kinetics; conditions: SPR
# [2] = biological target: GDP-bound HRAS wild-type protein (Homo sapiens, UniProt P01112); assay: Binding to HRAS by surface plasmon resonance (SPR), Single Cycle Kinetics; conditions: SPR
# Sequence of GDP-bound HRAS wild-type protein (P01112 whole entry): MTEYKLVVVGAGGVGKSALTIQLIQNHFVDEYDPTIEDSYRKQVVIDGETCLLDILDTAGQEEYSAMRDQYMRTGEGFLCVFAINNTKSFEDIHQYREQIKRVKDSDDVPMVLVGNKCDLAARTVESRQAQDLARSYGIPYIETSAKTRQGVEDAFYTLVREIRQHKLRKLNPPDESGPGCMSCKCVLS
# [3] = KD ratio, GDP-bound NRAS wild-type vs GDP-bound KRAS wild-type
# [4] = KD ratio, GDP-bound HRAS wild-type vs GDP-bound KRAS wild-type
# Sequence of GDP-bound NRAS wild-type protein (P01111 whole entry): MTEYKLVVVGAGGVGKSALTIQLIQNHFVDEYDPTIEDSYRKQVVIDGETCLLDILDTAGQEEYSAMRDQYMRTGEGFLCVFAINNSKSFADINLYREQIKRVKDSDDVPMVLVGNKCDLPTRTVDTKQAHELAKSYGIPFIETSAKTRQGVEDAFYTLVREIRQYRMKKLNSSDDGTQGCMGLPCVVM
smiles,measurement,setting,value
"CCCO[C@@H]1C[C@H]2C(=O)NC3(CC(C)(C)C3)C(=O)N(C)[C@@H](C3CCCC3)C(=O)N(C)[C@H](C(=O)N3CCCC3)CC(=O)N(C)[C@H]3CCCCc4ccc(cc4)C[C@@H](C(=O)N(C)CC(=O)N[C@@H](CCc4ccc(C(F)(F)F)c(OC)c4)C(=O)N2C1)N1CC/C=C\C[C@@H](C1=O)N(C)C(=O)CN(C)C(=O)[C@H]([C@@H](C)CC)NC3=O [PP3094, (1S,7S,11R,13S,19S,22S,26S,29S,35S,37Z)-19-cyclopentyl-7-[2-[3-methoxy-4-(trifluoromethyl)phenyl]ethyl]-3,3′,3′,18,21,25,31,34-octamethyl-29-[(1S)-1-methylpropyl]-11-propoxy-22-(pyrrolidine-1-carbonyl)spiro[3,6,9,15,18,21,25,28,31,34,41-undecazapentacyclo[24.15.9.2^43,46.1^35,41.0^9,13]tripentaconta-37,43(52),44,46(51)-tetraene-16,1′-cyclobutane]-2,5,8,14,17,20,24,27,30,33,53-undecone]",NRAS/KRAS (ratio of KD value with respect to GDP-bound NRAS wild-type protein to KD value with respect to KRAS),[1]; GDP-bound wild-type proteins,A (a compound having 10 or more and less than 20 is denoted as A)
same,HRAS/KRAS (ratio of KD value with respect to GDP-bound HRAS wild-type protein to KD value with respect to KRAS),[2]; GDP-bound wild-type proteins,B (a compound having 3 or more and less than 10 is denoted as B)
CCC[C@H]1C(=O)N[C@@H]([C@@H](C)CC)C(=O)N(C2CC2)CC(=O)N(C)[C@H]2C/C=C\CCN(C2=O)[C@@H](Cc2ccc(C(F)(F)F)cc2)C(=O)N(C)CC(=O)N[C@@H](CCc2cc(F)c(C(F)(F)F)c(F)c2)C(=O)N2C[C@H](OCC)C[C@H]2C(=O)N(C)C2(CCC2)C(=O)N(C)[C@@H](C2CCCC2)C(=O)N(C)[C@H](C(=O)N2CCCC2)CC(=O)N1C [PP3112],NRAS/KRAS (ratio of KD value with respect to GDP-bound NRAS wild-type protein to KD value with respect to KRAS),[1]; GDP-bound wild-type proteins,A (a compound having 10 or more and less than 20 is denoted as A)
same,HRAS/KRAS (ratio of KD value with respect to GDP-bound HRAS wild-type protein to KD value with respect to KRAS),[2]; GDP-bound wild-type proteins,B (a compound having 3 or more and less than 10 is denoted as B)
CCO[C@@H]1C[C@H]2C(=O)NC3(CCC3)C(=O)N(C)[C@@H](C3CCCC3)C(=O)N(C)[C@H](C(=O)N3CCOCC3)CC(=O)N(C)[C@@H](CC3CC3)C(=O)N[C@@H]([C@@H](C)CC)C(=O)N(C)CC(=O)N(C)[C@H]3CCCCN(C3=O)[C@@H](Cc3ccc(C(F)(F)F)cc3)C(=O)N(C)CC(=O)N[C@@H](CCc3cc(F)c(C(F)(F)F)c(F)c3)C(=O)N2C1 [PP0712],NRAS/KRAS (ratio of KD value with respect to GDP-bound NRAS wild-type protein to KD value with respect to KRAS),[1],C (A compound having a KD ratio of 0.1 or more and less than 3 is denoted as C)
same,HRAS/KRAS (ratio of KD value with respect to GDP-bound HRAS wild-type protein to KD value with respect to KRAS),[2],C (A compound having a KD ratio of 0.1 or more and less than 3 is denoted as C)
CCO[C@@H]1C[C@H]2C(=O)N(C)C3(CC(C)(C)C3)C(=O)N(C)[C@@H](C3CCCC3)C(=O)N(C)[C@H](C(=O)N(C)C)CC(=O)N(C)[C@H]3CCCCCCc4ccc(cc4)C[C@@H](C(=O)N(C)CC(=O)N[C@@H](CCc4ccc(C(F)(F)F)c(OC)c4)C(=O)N2C1)N1CC/C=C\C[C@@H](C1=O)N(C)C(=O)CN(C)C(=O)[C@H]([C@@H](C)CC)NC3=O [PP3090],NRAS/KRAS (ratio of KD value with respect to GDP-bound NRAS wild-type protein to KD value with respect to KRAS),[1]; GDP-bound wild-type proteins,A (a compound having 10 or more and less than 20 is denoted as A)
same,HRAS/KRAS (ratio of KD value with respect to GDP-bound HRAS wild-type protein to KD value with respect to KRAS),[2]; GDP-bound wild-type proteins,B (a compound having 3 or more and less than 10 is denoted as B)
CCO[C@@H]1C[C@H]2C(=O)NC3(CCC3)C(=O)N(C)[C@@H](C3CCCC3)C(=O)N(C)[C@H](C(=O)N(C)C)CC(=O)N(C)[C@@H](Cc3ccccc3F)C(=O)N[C@@H]([C@@H](C)CC)C(=O)N(C)CC(=O)N(C)[C@H]3CCCCCN(C3=O)[C@@H](Cc3ccc(C(F)(F)F)cc3)C(=O)N(C)CC(=O)N[C@@H](CCc3cc(F)c(C(F)(F)F)c(F)c3)C(=O)N2C1 [PP0934],NRAS/KRAS (ratio of KD value with respect to NRAS to KD value with respect to KRAS),[1]; [3],B (a compound having 3 or more and less than 10 is denoted as B)
same,HRAS/KRAS (ratio of KD value with respect to HRAS to KD value with respect to KRAS),[2]; [4],B (a compound having 3 or more and less than 10 is denoted as B)
CCCN(C)C(=O)[C@@H]1CC(=O)N(C)[C@@H](COC)C(=O)N[C@@H]([C@@H](C)CC)C(=O)N(C)CC(=O)N(C)[C@H]2C/C=C\CCN(C2=O)[C@@H](Cc2ccc(C(F)(F)F)cc2)C(=O)N(C)CC(=O)N[C@@H](CCc2cc(F)c(Cl)c(F)c2)C(=O)N2C[C@H](OCC)C[C@H]2C(=O)NC2(CC(C)(C)C2)C(=O)N(C)[C@@H](C2CCCC2)C(=O)N1C [PP1763],NRAS/KRAS (ratio of KD value for NRAS to KD value for KRAS),[1]; [3],A (a compound having 10 or more and less than 20 is denoted as A)
same,HRAS/KRAS (ratio of KD value for HRAS to KD value for KRAS),[2]; [4],A (a compound having 10 or more and less than 20 is denoted as A)
CCO[C@@H]1C[C@H]2C(=O)NC3(CCC3)C(=O)N(C)[C@@H](C3CCCC3)C(=O)N(C)[C@H](C(=O)N(C)C)CC(=O)N(C)[C@@H](CC)C(=O)N[C@@H]([C@@H](C)CC)C(=O)N(C)CC(=O)N(C)[C@H]3C/C=C\CCN(C3=O)[C@@H](Cc3ccc(C(F)(F)F)cc3)C(=O)N(C)CC(=O)N[C@@H](CCc3ccc(C(F)(F)F)c(Cl)c3)C(=O)N2C1 [PP0978],NRAS/KRAS (ratio of KD value with respect to NRAS to KD value with respect to KRAS),[1]; [3],A (a compound having 10 or more and less than 20 is denoted as A)
same,HRAS/KRAS (ratio of KD value with respect to HRAS to KD value with respect to KRAS),[2]; [4],B (a compound having 3 or more and less than 10 is denoted as B)
